Test results as given in a melting point compilation (Tetko et al.; mined from patent text by program, amines drawn as free bases though some values may be those of a salt).

| melting point [°C] | Structure (SMILES) |
| --- | --- |
| 78 to 79 | CCCNON=C(C)C1=CCCN(C)C1 |
| 160 to 164 | CC(=O)NC[C@H]1CN(c2ccc(N3CCC4(CC3)OCCS4)c(F)c2)C(=O)O1 |
| 126 to 128 | CNCC(CNC(C)=O)c1cccc2ccc(OC)cc12 (stereo not drawn) |
| 145 | CN=CN(C)c1nc(-c2cc(Cl)nc(Cl)c2)cs1 |
| 269 to 271 | Cc1ccc(C(=O)C2=C(O)C(=O)N(c3ncc(S(C)(=O)=O)s3)C2c2ccc(C(C)C)cc2)cc1 (stereo not drawn) |
| 161 to 163 | C=CCNc1nc(NCC=C)nc(N(CCCCCCN(c2nc(NCC=C)nc(NCC=C)n2)C2CC(C)(C)NC(C)(C)C2)C2CC(C)(C)NC(C)(C)C2)n1 |
| 208 to 210 | CCNC1N=CN(c2ccccc2C)C(=O)N1 (stereo not drawn) |
| 127 | CN(SC(C)(C)C)C(=O)Nc1ccc(Cl)c(Cl)c1 |
| 198 to 200 | CC1(C)CCC(C)(C)c2cc(S(=O)Cc3ccc(C(=O)O)cc3)ccc21 (stereo not drawn) |
| 164 | CC(C)(C)OC(=O)N1CCN(c2ccc(N=C(N)c3cccs3)cc2)CC1 |
| 183 to 184 | Cc1ccc(-c2ccc3c(c2)C=C(C(=O)Nc2ccc(CNC4CCCCC4)cc2)CCO3)cc1 |
| 230 to 232 | COc1cc2ncc(C#N)c(Nc3ccc(O)c(Cl)c3)c2cc1OC |
| 201 to 203 | CC(=O)OCc1c(C#N)cnc2c(NC(=O)c3c(Cl)cccc3Cl)cccc12 |
| 208 | O=CNc1ccnc(C(=O)Nc2ccc(Oc3ccccc3)cc2)c1O |
| 168 to 170 | CC(C)n1nc(-c2sc(C(=O)NCc3ccccn3)nc2-c2cccc(Cl)c2)ccc1=O |
| 69 to 71 | O=C1CC2C1CC(O)C2Cl (stereo not drawn) |
| 89 to 92 | CC(Cc1c[nH]c2ccccc12)NC(=O)Oc1ccccc1 (stereo not drawn) |
| 76 to 78 | CCCCCCCCCCCCCCCCCCc1c(C)[nH]c(C(=O)OCC)c1C |
| 225 to 226 | COc1ccccc1N1CCN(S(=O)(=O)c2ccc(/C=C/C(=O)NO)cc2)CC1 |
| 112 to 114 | Cc1ccccc1C(CCC(=O)O)Oc1cc(OCc2ccsc2)ccc1-c1ncco1 (racemic) |

| melting point [°C] | Structure (SMILES) |
| --- | --- |
| 88 to 89 | Cc1cccc(C(O)CNC(N)=C(CCSCc2cc(C)c(CN(C)C)s2)[N+](=O)[O-])c1 (stereo not drawn) |
| 88 to 90 | CCc1n[nH]c(CCOc2ccc(S(C)(=O)=O)cc2)c1Oc1cc(C#N)cc(C#N)c1 |
| 121 to 122 | CC(C#CC1=C(C)C(O)C(O)C1(C)C)=CCO (stereo not drawn) |
| 171 | COc1ccccc1N(CC(=O)OC(C)(C)C)C(=O)CNC(=O)Nc1cccc(C)c1 |
| 109 to 110 | CC(C)Cc1nc(-c2ccccc2)cnc1NN |
| 99 | c1ccc(Oc2ccc(OCc3nc(C4CC4)no3)cc2)cc1 |
| 124 to 126 | Cc1c(CC(=O)OCCO[N+](=O)[O-])cc(-c2ccc(S(C)(=O)=O)cc2)n1-c1ccccc1 |
| 118 to 119 | CC(C)n1nc(CO)cc1OCc1ccc2ccccc2n1 |
| 146 to 147 | CCn1cc(/C=C/c2cn(-c3ccccc3)nc2OCc2ccc(OCc3nc(-c4ccc(CC(=O)O)cc4)oc3C)c(OC)c2)cn1 |
| 158 | CC(C)Oc1ccc(-c2cncc(OC3SCC(O)C(O)C3O)c2)cc1 (stereo not drawn) |
| 183 to 184 | COCCCNc1cccc(Oc2ccc(-c3cn(C4CCOC4)c4ncnc(N)c34)cc2)c1C#N (stereo not drawn) |
| 124 to 126 | Cn1nc(CO)cc1OCCCN1CCN(c2cccc3sccc23)CC1 |
| 144 to 145 | CCOC(=O)c1cccc(NC(=O)c2cc(C(C)C)c(C(C)C)o2)c1 |
| 149 to 151 | O=c1[nH]c(=O)n(Cc2ccc(OCCCCCCCCCOc3ccc(Cn4oc(=O)[nH]c4=O)cc3)cc2)o1 |
| 213 to 214 | CN1CCN(CCCC2CCN(C(=O)N3c4ccccc4C(=O)Nc4cccnc43)CC2)CC1 |
| 189 to 191 | O=C(NCc1ccc2cc(O)ccc2c1)c1cc(-c2ccc(Cl)cc2)oc1C(F)(F)F |
| 211 to 216 | Cc1cnn2c(-c3cccc(-c4ccccc4C#N)c3)cnc2n1 |
| 79 | Cc1ccc(S(=O)(=O)N2[C@H](CCCCC#N)CC[C@@H]2c2ccc(F)cc2)cc1 (racemic) |
| 158 to 160 | COc1cc(OC)cc(N2CCN(C(=O)Nc3cc(C(C)OC(=O)CCC(=O)O)c(C)nc3OC)CC2)c1 (stereo not drawn) |
| 263 to 265 | O=C(c1ccc(OCC2CC2)c2oc3ccccc3c12)[NH+]([O-])c1c(Cl)cncc1Cl (stereo not drawn) |

| melting point [°C] | Structure (SMILES) |
| --- | --- |
| 128 to 148 | CCN1CC(CCN2CCOCC2)N(C)c2ccccc2C1=O (stereo not drawn) |
| 224 to 226 | CN(C(=O)OC(C)(C)C)C1CC=C(c2c[nH]c3ccc([N+](=O)[O-])cc23)CC1 (stereo not drawn) |
| 299 to 301 | O=c1[nH]c2ncc(-c3ccc(O)cc3)nc2n1C1CCCC1 |
| 116 to 118 | OCC1CCCN(c2nc(-c3ccccc3)nc3ccccc23)C1 (stereo not drawn) |
| 70 to 72 | CCc1cccc(-c2ccc(S(=O)(=O)N3c4ccccc4CC3C(=O)O)cc2)c1 (stereo not drawn) |
| 155 to 156 | Oc1ccc(N2CCN(Cc3nc4ccccc4o3)CC2)cc1 |
| 245 to 247 | CC12CCC3c4c(O)cc(O)cc4CCC3C1CCC2=O (stereo not drawn) |
| 180 | O=C(OC1C2CN(Cc3ccccc3)CC1CN(C(=O)c1ccc([N+](=O)[O-])cc1)C2)c1ccccc1 (stereo not drawn) |
| 245 to 246 | Nc1cc(O)nc(SCc2c(F)cccc2F)n1 |
| 156 to 157 | C#Cc1cc(C=Cc2cc(C(C)(C)C)cc(C(C)(C)C)c2)cc(C=Cc2cc(C(C)(C)C)cc(C(C)(C)C)c2)c1 |
| 158 | COc1ccc(OC)c(C(=O)c2oc3ccccc3c2O)c1 |
| 115 to 116 | COC1=C(OC)C(=O)C(CN2CCN(C(=S)SC)CC2)=C(C)C1=O |
| 61.5 to 63 | CNc1cc(F)ccc1C(=O)CSC |
| 190 to 192 | CCn1ncnc1COc1nn2c(-c3ccccc3F)nncc2c1-c1cccs1 |
| 173 to 176 | COc1cc(N)c(Cl)cc1C(=O)NC1CCN(CC2CCCCC2)CC1C (stereo not drawn) |
| > 280 | CN1CC2CN(C(=O)N3c4ccccc4NC(=O)c4c3c(Cl)cn4C)CC2C1 (stereo not drawn) |
| 95 | O=C(Nc1ccc2ccc(Oc3ccccc3)nc2n1)C1=CCC=CC1 |
| 79.5 | O=C(Cl)N1CCN(c2ccccc2)CC1 |
| 110 to 116 | N#Cc1ccc2ccc(CBr)cc2c1 |
| 225 to 227 | COC(=O)C1=C(C)NC2=C(C(=O)CN(Cc3ccccc3)C2)C1c1ccccc1C(F)(F)F (stereo not drawn) |

| Structure (SMILES) | melting point [°C] |
| --- | --- |
| O=C(Cc1c[nH]c2ccccc12)NC1N=C(c2ccccc2)c2ccccc2NC1=O (racemic) | 264 to 265 |
| O=C1C2C(C(=O)N1c1ccccc1S)C1(Cl)C(Cl)=C(Cl)C2(Cl)C1(Cl)Cl (stereo not drawn) | 195 to 198 |
| O=C(Nc1cccc([N+](=O)[O-])c1)NC1C(=O)N(CC23CC4CC(CC(C4)C2)C3)c2ccccc2N(c2ccccc2)C1=O (stereo not drawn) | 213 to 215 |
| CC(=O)c1nc(C)n2c1CN=C(c1ccccc1Cl)c1cc(Cl)ccc1-2 | 234 to 236 |
| CN1C(=O)C(F)N=C(c2ccccc2Cl)c2ccc(Cl)cc21 (stereo not drawn) | 204 to 205 |
| CCOC(=O)C1=C(N2CC2C(N)=O)CCCC1 (stereo not drawn) | 101 to 104 |
| CNC(=O)ON=C1N=C(c2ccc(Cl)cc2)C(C)(C)S1 | 147 to 149 |
| CN1CCN(C(=NO)C2=Nc3ccc(Cl)cc3C(c3ccccc3F)=NC2)CC1 | 198 to 200 |
